Patent US20230202989A1, “COMPOUNDS” (JANSSEN PHARMACEUTICA NV, priority 2020, published 2023)
Where two headings read alike, the source gives them in different places.

What was measured:
IL-1β = experiment: PBMC assay: inhibition of IL-1β release after LPS stimulation (MSD); type: cell-based; conditions: human PBMCs, read-out: IL1β IC50
Protocol: Peripheral venous blood s collected from health individuals and human peripheral blood mononuclear cells (PBMCs) ere isolated from blood by Ficoll Histopaque (Sigma-Aldrich, A0561) density gradient centrifugation. After isolation, PBMCs were stored in liquid nitrogen for later use. Upon thawing, PBMC cell viability was determined in growth medium (RPMI media supplemented with 10% fetal bovine serum, 1% Pen-Strep and 1% L-glutamine). […] PBMCs were added at a density of 7.5×10^4 cells per well and incubated for 30 min in a 5% CO2 incubator at 37° C. LPS stimulation was performed by addition of 100 ng/ml LPS (final concentration, Invivogen, tlrl-smlps) for 6 hrs followed by collection of cellular supernatant and the analysis of IL-1β (μM) and TNF cytokines levels (μM) via MSD technology according to manufacturers' guidelines (MSD, K151A0H).
(§1) The IC50 values (for IL-1β) and EC50 values (TNF) were obtained on compounds of the invention/examples, and are depicted in the following table: […]

TNF = experiment: PBMC assay: TNF cytokine levels after LPS stimulation (MSD); type: cell-based; conditions: Homo sapiens, PBMC, 6 h, human PBMCs, 100 ng/ml LPS for 6 hrs
Protocol: Peripheral venous blood s collected from health individuals and human peripheral blood mononuclear cells (PBMCs) ere isolated from blood by Ficoll Histopaque (Sigma-Aldrich, A0561) density gradient centrifugation. After isolation, PBMCs were stored in liquid nitrogen for later use. Upon thawing, PBMC cell viability was determined in growth medium (RPMI media supplemented with 10% fetal bovine serum, 1% Pen-Strep and 1% L-glutamine). Compounds were spotted in a 1:3 serial dilution in DMSO and diluted to the final concentration in 30 μl medium in 96 well plates (Falcon, 353072). PBMCs were added at a density of 7.5×10^4 cells per well and incubated for 30 min in a 5% CO2 incubator at 37° C. LPS stimulation was performed by addition of 100 ng/ml LPS (final concentration, Invivogen, tlrl-smlps) for 6 hrs followed by collection of cellular supernatant and the analysis of IL-1β (μM) and TNF cytokines levels (μM) via MSD technology according to manufacturers' guidelines (MSD, K151A0H).
as §1

[1] = Homo sapiens, PBMC, 6 h, 100 ng/ml LPS for 6 hrs, MSD, 96 well plates

Compound | IC50 (IL-1β; [1]) [µM] | EC50 (TNF) [µM] | IC50 (IL-1β; 100 ng/ml LPS for 6 hrs, MSD, 96 well plates) [µM] | IC50 (IL-1β; Homo sapiens, PBMC, LPS stimulation, 384 well plate) [µM]
CC(C)c1nn(CC(=O)N[C@H]2C[C@H](C(C)(C)O)C2)c(=O)c2ccc(C(F)(F)F)cc12 [Final Cpd X99] | 1.16 | > 20 | – | –
CC(C)c1nn(CC(=O)Nc2ccc3ncn(C)c3n2)c(=O)c2ccc(C(F)(F)F)cc12 [Final Cpd X47, 2-(4-isopropyl-1-oxo-6-(trifluoromethyl)phthalazin-2(1H)-yl)-N-(3-methyl-3H-imidazo[4,5-b]pyridin-5-yl)acetamide] | 0.394 | > 20 | – | –
CC(C)(F)c1nn(CC(=O)Nc2ccc3nncn3c2)c(=O)c2ccc(C(F)(F)F)cc12 [Final Cpd X136] | 3.77 | > 20 | – | –
Cc1c(NC(=O)Cn2nc(C(C)C)c3cc(C(F)(F)F)ccc3c2=O)ccc2nccn12 [Final Cpd X74] | 0.804 | > 20 | – | –
CC(C)c1nn(CC(=O)N[C@H]2C[C@](O)(C(F)(F)F)C2)c(=O)c2ccc(C(F)(F)F)cc12 [Final Cpd X35] | – | > 20 | 0.303 | –
CO[C@H]1CC[C@@H](NC(=O)Cn2nc(C(C)C)c3cc(C(F)(F)F)ccc3c2=O)CC1 [Final Cpd X131] | 3.09 | > 20 | – | –
Cc1cn2nc(NC(=O)Cn3nc(C(C)C)c4cc(C(F)(F)F)ccc4c3=O)ccc2n1 [Final Cpd X53] | 0.444 | > 20 | – | –
CCN1CC[C@H](NC(=O)Cn2nc(C(C)C)c3cc(C(F)(F)F)ccc3c2=O)[C@@H](O)C1 (single isomer, unassigned) [Final Cpd X172] | > 20 | > 20 | – | –
CCc1ccc2c(=O)n(CC(=O)Nc3ccncn3)nc(CC)c2c1 [Final Cpd 7] | – | > 10 | – | 0.7
CC(C)c1nn(CC(=O)Nc2ccc(I)nn2)c(=O)c2ccc(C(F)(F)F)cc12 [Final Cpd X154] | 3.09 | > 20 | – | –
CC(C)c1nn(CC(=O)N[C@@H]2C[C@H](O)CN(C)C2)c(=O)c2ccc(C(F)(F)F)cc12 (single isomer, unassigned) [Final Cpd X130] | 3.08 | > 20 | – | –
CC(C)c1nn(CC(=O)N[C@H]2CC[C@@H](O)CC2)c(=O)c2ccc(C(F)(F)F)cc12 [Final Cpd X42] | 0.353 | 15 | – | –
CC(=O)N1C[C@@H](O)C[C@H](NC(=O)Cn2nc(C(C)C)c3cc(C(F)(F)F)ccc3c2=O)C1 (single isomer, unassigned) [Final Cpd X159] | 10.3 | > 20 | – | –
CC(C)c1nn(CC(=O)Nc2ccc(C3CC3)nn2)c(=O)c2ccc(C(F)(F)F)cc12 [Final Cpd X179] | > 20 | > 20 | – | –
CC(C)(F)c1nn(CC(=O)Nc2ccnnc2)c(=O)c2ccc(C(F)(F)F)cc12 [Final Cpd X155] | 7.91 | 17.6 | – | –
CCN1CC[C@H](NC(=O)Cn2nc(C(C)C)c3cc(C(F)(F)F)ccc3c2=O)[C@H](O)C1 (single isomer, unassigned) [Final Cpd X147] | 5.94 | > 20 | – | –
CC(C)c1nn(CC(=O)N[C@H]2CC[C@@H]2O)c(=O)c2ccc(C(F)(F)F)cc12 [Final Cpd X56] | 0.493 | > 20 | – | –
CC(C)c1nn(CC(=O)Nc2cc(Cl)c(=O)n(C(F)F)c2)c(=O)c2ccc(C(F)(F)F)cc12 [Final Cpd X120] | 2.57 | > 20 | – | –

Compound | IC50 (IL-1β; [1]) [µM] | EC50 (TNF) [µM] | IC50 (IL-1β; 100 ng/ml LPS for 6 hrs, MSD, 96 well plates) [µM] | IC50 (IL-1β; Homo sapiens, PBMC, LPS stimulation, 384 well plate) [µM]
CCc1nn(CC(=O)Nc2cccnc2)c(=O)c2ccccc12 [Final Cpd 13] | > 20 | > 20 | – | –
CC(C)c1nn(CC(=O)N[C@H]2C[C@@](C)(O)C2)c(=O)c2ccc(C(F)(F)F)cc12 [Final Cpd 25] | 0.058 | 15.4 | – | –
CC(C)c1nn(CC(=O)N[C@@H]2CC[C@](C)(O)C2)c(=O)c2ccc(C(F)(F)F)cc12 [Final Cpd X100] | 1.26 | > 20 | – | –
CCN1CC[C@@H](O)[C@@H](NC(=O)Cn2nc(C(C)C)c3cc(C(F)(F)F)ccc3c2=O)C1 [Final Cpd X6, N-((3S,4R)-1-ethyl-4-hydroxypiperidin-3-yl)-2-(4-isopropyl-1-oxo-6-(trifluoromethyl)phthalazin-2(1H)-yl)acetamide] | 0.066 | > 20 | – | –
CC(C)c1nn(CC(=O)Nc2ccc3nn(C)cc3c2)c(=O)c2ccc(C(F)(F)F)cc12 [Final Cpd X137] | 3.86 | > 20 | – | –
CC(C)c1nn(CC(=O)N[C@H]2C[C@@H](O)C2)c(=O)c2ccc(C(F)(F)F)cc12 [Final Cpd X67] | 0.679 | > 20 | – | –
CCc1nn(CC(=O)N[C@H]2CC[C@H](O)CC2)c(=O)c2ccc(C(C)C)cc12 [Final Cpd 28] | 0.97 | > 10 | – | –
CC(C)c1nn(CC(=O)Nc2cc(C(F)F)[nH]n2)c(=O)c2ccc(C(F)(F)F)cc12 [Final Cpd X39] | 0.347 | 12.6 | – | –
CCN1C[C@@H](F)C[C@H](NC(=O)Cn2nc(C(C)C)c3cc(C(F)(F)F)ccc3c2=O)C1 (single isomer, unassigned) [Final Cpd X153] | 7.63 | > 20 | – | –
CC(C)c1nn(CC(=O)N[C@H]2CN(CC[C@H](C)O)CC[C@H]2O)c(=O)c2ccc(C(F)(F)F)cc12 [Final Cpd X81] | 0.879 | > 20 | – | –
CC(C)c1nn(CC(=O)NC2CCc3nncn3C2)c(=O)c2ccc(C(F)(F)F)cc12 (stereo not drawn) [Final Cpd X89] | 0.924 | > 20 | – | –
CC(c1nn(CC(=O)N[C@H]2C[C@@](C)(O)C2)c(=O)c2ccc(C(F)(F)F)cc12)C(F)(F)F (stereo partly drawn) [Final Cpd X85] | 0.915 | > 20 | – | –
CCc1nn(CC(=O)Nc2ccncn2)c(=O)c2ccccc12 [Final Cpd 12] | > 20 | > 20 | – | –
Cn1nc(NC(=O)Cn2nc(C3CC3)c3cc(C(F)(F)F)ccc3c2=O)ccc1=O [Final Cpd X93] | 1.01 | > 20 | – | –
CCN1CCC[C@@H](NC(=O)Cn2nc(C(C)C)c3cc(C(F)(F)F)ccc3c2=O)C1=O (single isomer, unassigned) [Final Cpd X166] | 17.5 | > 20 | – | –
CC(C)c1nn(CC(=O)N[C@H]2CC[C@H](O)CC2)c(=O)c2ccc(C(F)(F)F)cc12 [Final Cpd X44] | 0.374 | > 20 | – | –
CC(O)c1nn(CC(=O)Nc2ccncn2)c(=O)c2ccc(C(F)(F)F)cc12 (stereo not drawn) [Final Cpd X103] | 1.32 | > 20 | – | –
Cc1cnc2ccc(NC(=O)Cn3nc(C(C)C)c4cc(C(F)(F)F)ccc4c3=O)cn12 [Final Cpd X79] | 0.865 | > 20 | – | –

Second part, the compound after the results:

IC50 (IL-1β; [1]) [µM] | EC50 (TNF) [µM] | IC50 (IL-1β; 100 ng/ml LPS for 6 hrs, MSD, 96 well plates) [µM] | IC50 (IL-1β; Homo sapiens, PBMC, LPS stimulation, 384 well plate) [µM] | Compound
4.55 | > 20 | – | – | COC(C)(C)c1ccc2c(=O)n(CC(=O)N[C@H]3C[C@@](C)(O)C3)nc(C(C)C)c2c1 [X-1058]
0.183 | > 20 | – | – | O=C(Cn1nc(C(F)F)c2cc(Br)ccc2c1=O)Nc1ccc2nncn2c1 [X-1019]
2.51 | 9.55 | – | – | CC(C)c1nn(CC(=O)Nc2ccncn2)c(=O)c2ccc(OC(F)(F)F)cc12 [X-1038]
> 20 | > 20 | – | – | CCc1nn(CC(=O)Nc2c(-c3ccnc(OC)c3)ccc3c2CCC3)c(=O)c2ccc(Br)cc12 [X-1013]
1.57 | > 20 | – | – | CC(C)c1nn(CC(=O)N[C@H]2C[C@@](C)(O)C2)c(=O)c2ccc(N(C)C)cc12 [X-1047]
0.141 | > 20 | – | – | CC(C)c1nn(CC(=O)Nc2ccc(=O)n(C)n2)c(=O)c2ccc(Br)cc12 [X-1036]
0.539 | 18.6 | – | – | COC(C)c1ccc2c(=O)n(CC(=O)Nc3ccc4nncn4c3)nc(C(C)C)c2c1 (stereo not drawn) [X-1054]
2.13 | > 20 | – | – | COC(C)c1ccc2c(=O)n(CC(=O)N[C@H]3C[C@@](C)(O)C3)nc(C(C)C)c2c1 (stereo partly drawn) [X-1055]
0.18 | 1.08 | – | – | CC(C)c1nn(CC(=O)Nc2ccc3nncn3n2)c(=O)c2ccc(C3CCC3)cc12 [X-1012]
0.057 | > 20 | – | – | C[C@]1(O)C[C@@H](NC(=O)Cn2nc(C3CC3)c3cc(Br)ccc3c2=O)C1 [X-1022]
3.76 | > 20 | – | – | CC(C)c1nn(CC(=O)Nc2ccc3nncn3c2)c(=O)c2ccc(C(C)(C)O)cc12 [X-1045]
0.533 | 18.9 | – | – | CC(C)c1nn(CC(=O)Nc2ccnnc2)c(=O)c2ccc(C(C)(F)F)cc12 [X-1064]
> 20 | > 20 | – | – | CC(C)c1nn(CC(=O)Nc2ccncn2)c(=O)c2ccc(C#N)cc12 [X-1061]
2.13 | > 20 | – | – | COC(C)c1nn(CC(=O)Nc2ccnnc2)c(=O)c2ccc(Br)cc12 (stereo not drawn) [X-1015]
0.122 | > 20 | – | – | O=C(Cn1nc(C(F)F)c2cc(Br)ccc2c1=O)Nc1ccc2nncn2n1 [X-1000]
